In patent US12180187B2, “1-phenyl-5-azinylpyrazolyl-3-oxyalkyl acids and their use for controlling unwanted plant growth” (BAYER AKTIENGESELLSCHAFT, priority 2019, dated 2024):

Experiments:
[1] = tested on: MATIN; assay: Post-emergence action against MATIN, 1.28 kg/ha; assay type: in vivo, Tripleurospermum inodorum (Matricaria inodora); settings: dosage 1280 g/ha, visual rating about 3 weeks after treatment vs untreated controls (100% = plants died)
Method in brief: (§1)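 Visual rating against untreated plants about 3 weeks after spraying gives % activity, where 0% means like controls and 100% means plants died. Plants were treated post-emergence at the one-leaf stage with compound formulated as wettable powder or emulsion concentrate, applied at 600 L water/ha plus 0.5% additive.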

[2] = tested on: VIOTR; assay: Pre-emergence action at 320 g/ha against VIOTR; assay type: in vivo, Viola tricolor; settings: dosage 320 g/ha
Method in brief: (§2)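 Visual scoring in percent against untreated controls, about 3 weeks after treatment, where 100% means dead plants and 0% means no difference. Compounds were applied as aqueous suspension or emulsion (WP or EC, plus 0.5% additive) onto soil covering freshly sown seeds, at 600 l/ha water.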

[3] = tested on: SETVI; assay: Pre-emergence action against SETVI, 1280 g/ha; assay type: in vivo, Setaria viridis; settings: visual scoring after about 3 weeks vs untreated controls, 100% = plants have died, 0% = like control plants
Method in brief: (§3)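 Visual percent-effect ratings (0% = like control, 100% = plants dead) were taken about 3 weeks after pre-emergence soil-surface application of WP/EC aqueous formulations with 0.5% additive, 600 L water/ha. Seeds were sown in sandy loam and grown in the greenhouse.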

[4] = tested on: ALOMY; assay: Pre-emergence action against ALOMY, 1280 g/ha; assay type: in vivo, Alopecurus myosuroides; settings: visual scoring after about 3 weeks vs untreated controls, 100% = plants have died, 0% = like control plants
Method in brief: as §3

[5] = tested on: DIGSA; assay: Pre-emergence action at 320 g/ha against DIGSA; assay type: in vivo, Digitaria sanguinalis; settings: visual scoring after about 3 weeks vs untreated controls
Method in brief: as §2

[6] = tested on: DIGSA; assay: Post-emergence action against DIGSA, 1.28 kg/ha; assay type: in vivo, Digitaria sanguinalis; settings: dosage 1280 g/ha, visual rating about 3 weeks after treatment vs untreated controls
Method in brief: as §1

[7] = tested on: ABUTH; assay: Pre-emergence action at 320 g/ha against ABUTH; assay type: in vivo, Abutilon theophrasti; settings: greenhouse, scored visually after about 3 weeks vs untreated controls, 100% = plants have died, 0% = like control plants
Source text: b) Seeds of monocotyledonous and dicotyledonous weed plants and crop plants are placed in plastic or organic planting pots and covered with soil. The compounds of the invention, formulated in the form of wettable powders (WP) or as emulsion concentrates (EC), are then applied onto the surface of the covering soil as aqueous suspension or emulsion with addition of 0.5% additive at a water application rate of 600 l/ha (converted). After the treatment, the pots are placed in a greenhouse and kept under good growth conditions for the trial plants. After about 3 weeks, the effect of the preparations is scored visually in comparison with untreated controls as percentages. For example, 100% activity=the plants have died, 0% activity=like control plants. Tables 13 to 26 below show the effects of selected compounds of the general formula (I) on various harmful plants and at an application rate corresponding to 320 g/ha, which were obtained by the experimental procedure mentioned above.

[8] = tested on: VERPE; assay: Post-emergence action against VERPE, 1.28 kg/ha; assay type: in vivo, Veronica persica; settings: dosage 1280 g/ha, visual rating about 3 weeks after treatment vs untreated controls (100% = plants died)
Method in brief: as §1

[9] = tested on: PHBPU; assay: Pre-emergence action at 320 g/ha against PHBPU; assay type: in vivo; settings: visual scoring after about 3 weeks vs untreated controls
Method in brief: as §2

[10] = tested on: MATIN; assay: Pre-emergence action against MATIN, 1280 g/ha; assay type: in vivo, Tripleurospermum inodorum (Matricaria inodora); settings: scored visually after about 3 weeks vs untreated controls (100% = plants have died)
Method in brief: as §3

[11] = tested on: MATIN; assay: Pre-emergence action at 320 g/ha against MATIN; assay type: in vivo, Tripleurospermum inodorum (Matricaria inodora); settings: visual scoring after about 3 weeks vs untreated controls
Method in brief: as §2

[12] = tested on: SETVI; assay: Pre-emergence action at 320 g/ha against SETVI; assay type: in vivo, Setaria viridis; settings: visual scoring after about 3 weeks vs untreated controls
Method in brief: as §2

[13] = tested on: POAAN; assay: Post-emergence action against POAAN, 1.28 kg/ha; assay type: in vivo, Poa annua; settings: dosage 1280 g/ha, visual rating about 3 weeks after treatment vs untreated controls
Method in brief: as §1

[14] = tested on: KCHSC; assay: Pre-emergence action against KCHSC, 1280 g/ha; assay type: in vivo, Bassia scoparia; settings: scored visually after about 3 weeks vs untreated controls (100% = plants have died)
Method in brief: as §3

[15] = tested on: VERPE; assay: Pre-emergence action against VERPE, 1280 g/ha; assay type: in vivo, Veronica persica; settings: scored visually after about 3 weeks vs untreated controls (100% = plants have died)
Method in brief: as §3

[16] = tested on: ALOMY; assay: Post-emergence action against ALOMY, 1.28 kg/ha; assay type: in vivo, Alopecurus myosuroides; settings: dosage 1280 g/ha, visual rating about 3 weeks after treatment vs untreated controls
Method in brief: as §1

[17] = tested on: AMARE; assay: Post-emergence action against AMARE, 1.28 kg/ha; assay type: in vivo, Amaranthus retroflexus; settings: dosage 1280 g/ha, visual rating about 3 weeks after treatment vs untreated controls (100% = plants died)
Method in brief: as §1

[18] = tested on: AMARE; assay: Pre-emergence action against AMARE, 1280 g/ha; assay type: in vivo, Amaranthus retroflexus; settings: scored visually after about 3 weeks vs untreated controls (100% = plants have died)
Method in brief: as §3

[19] = tested on: ECHCG; assay: Post-emergence action against ECHCG, 1.28 kg/ha; assay type: in vivo, Echinochloa crus-galli; settings: dosage 1280 g/ha, visual rating about 3 weeks after treatment vs untreated controls
Method in brief: as §1

[20] = tested on: ABUTH; assay: Pre-emergence action against ABUTH, 1280 g/ha; assay type: in vivo, Abutilon theophrasti; settings: scored visually after about 3 weeks vs untreated controls (100% = plants have died)
Method in brief: as §3

[21] = tested on: DIGSA; assay: Pre-emergence action against DIGSA, 1280 g/ha; assay type: in vivo, Digitaria sanguinalis; settings: visual scoring after about 3 weeks vs untreated controls, 100% = plants have died, 0% = like control plants
Method in brief: as §3

[22] = tested on: LOLRI; assay: Pre-emergence action at 320 g/ha against LOLRI; assay type: in vivo, Lolium rigidum; settings: visual scoring after about 3 weeks vs untreated controls
Method in brief: as §2

[23] = tested on: ALOMY; assay: Pre-emergence action at 320 g/ha against ALOMY; assay type: in vivo, Alopecurus myosuroides; settings: scored visually after about 3 weeks vs untreated controls (100% = plants have died)
Method in brief: as §2

[24] = tested on: LOLRI; assay: Pre-emergence action against LOLRI, 1280 g/ha; assay type: in vivo, Lolium rigidum; settings: visual scoring after about 3 weeks vs untreated controls, 100% = plants have died, 0% = like control plants
Method in brief: as §3

[25] = tested on: STEME; assay: Post-emergence action against STEME, 1.28 kg/ha; assay type: in vivo, Stellaria media; settings: dosage 1280 g/ha, visual rating about 3 weeks after treatment vs untreated controls (100% = plants died)
Method in brief: as §1

[26] = tested on: LOLRI; assay: Post-emergence action against LOLRI, 1.28 kg/ha; assay type: in vivo, Lolium rigidum; settings: dosage 1280 g/ha, visual rating about 3 weeks after treatment vs untreated controls
Method in brief: as §1

[27] = tested on: KCHSC; assay: Post-emergence action against KCHSC, 1.28 kg/ha; assay type: in vivo, Bassia scoparia; settings: dosage 1280 g/ha, visual rating about 3 weeks after treatment vs untreated controls (100% = plants died)
Method in brief: as §1

[28] = tested on: VERPE; assay: Pre-emergence action at 320 g/ha against VERPE; assay type: in vivo, Veronica persica; settings: visual scoring after about 3 weeks vs untreated controls
Method in brief: as §2

[29] = tested on: POAAN; assay: Pre-emergence action against POAAN, 1280 g/ha; assay type: in vivo, Poa annua; settings: visual scoring after about 3 weeks vs untreated controls, 100% = plants have died, 0% = like control plants
Method in brief: as §3

[30] = tested on: AMARE; assay: Pre-emergence action at 320 g/ha against AMARE; assay type: in vivo, Amaranthus retroflexus; settings: visual scoring after about 3 weeks vs untreated controls
Method in brief: as §2

[31] = tested on: POLCO; assay: Pre-emergence action at 320 g/ha against POLCO; assay type: in vivo, Fallopia convolvulus (Polygonum convolvulus); settings: visual scoring after about 3 weeks vs untreated controls
Method in brief: as §2

[32] = tested on: ABUTH; assay: Post-emergence action against ABUTH, 1.28 kg/ha; assay type: in vivo, Abutilon theophrasti; settings: dosage 1280 g/ha, visual rating about 3 weeks after treatment vs untreated controls (100% = plants died)
Method in brief: as §1

[33] = tested on: STEME; assay: Pre-emergence action against STEME, 1280 g/ha; assay type: in vivo, Stellaria media; settings: scored visually after about 3 weeks vs untreated controls (100% = plants have died)
Method in brief: as §3

[34] = tested on: ECHCG; assay: Pre-emergence action against ECHCG, 1280 g/ha; assay type: in vivo, Echinochloa crus-galli; settings: visual scoring after about 3 weeks vs untreated controls, 100% = plants have died, 0% = like control plants
Method in brief: as §3

[35] = tested on: AVEFA; assay: Pre-emergence action at 320 g/ha against AVEFA; assay type: in vivo; settings: visual scoring after about 3 weeks vs untreated controls
Method in brief: as §2

C[C@@H](Oc1nn(-c2ccccc2F)c(-c2cncnc2)c1Cl)C(=O)O [VI-018]
90%: Pre-emergence action against VIOTR in % [2] | Pre-emergence action against PHBPU in % [9] | Pre-emergence action against MATIN in % [11] | Post-emergence action against AMARE [17] | Pre-emergence action against ABUTH [20] | Post-emergence action against STEME [25] | Post-emergence action against LOLRI [26] | Post-emergence action against KCHSC [27] | Pre-emergence action against POLCO in % [31] | Post-emergence action against ABUTH [32]
100%: Post-emergence action against MATIN [1] | Pre-emergence action against SETVI [3] | Pre-emergence action against ALOMY [4] | Pre-emergence action against DIGSA in % [5] | Post-emergence action against DIGSA [6] | Post-emergence action against VERPE [8] | Pre-emergence action against MATIN [10] | Pre-emergence action against SETVI in % [12] | Post-emergence action against POAAN [13] | Pre-emergence action against KCHSC [14] | Pre-emergence action against VERPE [15] | Post-emergence action against ALOMY [16] | Pre-emergence action against AMARE [18] | Post-emergence action against ECHCG [19] | Pre-emergence action against DIGSA [21] | Pre-emergence action against LOLRI in % [22] | Pre-emergence action at 320 g/ha against ALOMY in % [23] | Pre-emergence action against LOLRI [24] | Pre-emergence action against POAAN [29] | Pre-emergence action against AMARE in % [30] | Pre-emergence action against STEME [33] | Pre-emergence action against ECHCG [34]
80%: Pre-emergence action at 320 g/ha against ABUTH in % [7] | Pre-emergence action against VERPE in % [28] | Pre-emergence action against AVEFA in % [35]
